Patent US20190374563A1, “TREATMENT OF KLEBSIELLA PNEUMONIAE INFECTIONS WITH ANTIBACTERIAL AMINOGLYCOSIDE COMPOUNDS” (Achaogen, Inc., priority 2009, published 2019)
Converted amounts (≈) assume the structure as drawn. Where two headings read alike, the source gives them in different places.

Legend:
[1] = test system: E. coli ATCC 25922 (AECO001); assay: MIC assay, CLSI broth microdilution; format: cell-based; design: MIC AECO001: unit not given here; details: for MIC: Escherichia coli
Experimental: (§1) Minimum inhibitory concentrations (MIC) were determined by reference Clinical and Laboratory Standards Institute (CLSI) broth microdilution methods per M7-A7 [2006]. Quality control ranges utilizing E. coli ATCC 25922, P. aeruginosa ATCC 27853 and S. aureus ATCC 29213, and interpretive criteria for comparator agents were as published in CLSI M100-S17 [2007]. Briefly, serial two-fold dilutions of the test compounds were prepared at 2× concentration in Mueller Hinton Broth. The compound dilutions were mixed in 96-well assay plates in a 1:1 ratio with bacterial inoculum. The inoculum was prepared by suspension of a colony from an agar plate that was prepared the previous day. Bacteria were suspended in sterile saline and added to each assay plate to obtain a final concentration of 5×10^5 CFU/mL. The plates were incubated at 35° C. for 20 hours in ambient air.

[2] = test system: P. aeruginosa ATCC 27853 (APAE001); assay: MIC assay, CLSI broth microdilution; format: cell-based; details: Pseudomonas aeruginosa
Experimental: as §1

[3] = ATCC25922, read-out: MIC AECO001
[4] = ATCC27853, read-out: MIC APAE001
[5] = Table 1, AECO001 is ATCC25922, read-out: MIC AECO001
[6] = Table 1, APAE001 is ATCC27853, read-out: MIC APAE001

SMILES	MIC [1, 3] [µg/mL]	MIC [2, 4] [µg/mL]	MIC [1, 5] [µg/mL]	MIC [2, 6] [µg/mL]	MIC AECO001 ([1]; Table 3, E. coli ATCC25922)
CN[C@@H]1[C@@H](O)[C@@H](O[C@@H]2[C@@H](O)[C@H](O[C@H]3OC(CNCCCN)=CC[C@H]3N)[C@@H](N)C[C@H]2NS(=O)(=O)CCN)OC[C@]1(C)O [Example 26, 6′-(3-Amino-propyl)-1-(2-amino-ethylsulfonamide)-sisomicin]	1 to 16 (≈ 1.63 to 26.2 µM)	1 to 16 (≈ 1.63 to 26.2 µM)	–	–	–
CN[C@@H]1[C@@H](O)[C@@H](O[C@@H]2[C@@H](O)[C@H](O[C@H]3OC(CNCC(O)CO)=CC[C@H]3N)[C@@H](N)C[C@H]2NS(=O)(=O)CCN)OC[C@]1(C)O (stereo partly drawn) [Example 27, 6′-(2-Hydroxy-propanol)-1-(2-amino-ethylsulfonamide)-sisomicin]	1 to 16 (≈ 1.59 to 25.4 µM)	> 16	–	–	–
CN[C@@H]1[C@@H](O)[C@@H](O[C@@H]2[C@@H](O)[C@H](O[C@H]3OC(CNC[C@H](O)CO)=CC[C@H]3N)[C@@H](N)C[C@H]2NC(=O)[C@@H](O)CCN)OC[C@]1(C)O [Example 28, 6′-(2(S)-Hydroxy-propanol)-1-(4-amino-2(S)-hydroxy-butyryl)-sisomicin]	1 to 16 (≈ 1.61 to 25.7 µM)	1 to 16 (≈ 1.61 to 25.7 µM)	–	–	–
CN[C@@H]1[C@@H](O)[C@@H](O[C@@H]2[C@@H](O)[C@H](O[C@H]3OC(CNCCO)=CC[C@H]3N)[C@@H](N)C[C@H]2NS(=O)(=O)CCN)OC[C@]1(C)O [Example 29, 6′-(2-Hydroxy-ethyl)-1-(2-amino-ethylsulfonamide)-sisomicin]	1 to 16 (≈ 1.67 to 26.7 µM)	> 16	–	–	–
CN[C@@H]1[C@@H](O)[C@@H](O[C@@H]2[C@@H](O)[C@H](O[C@H]3OC(CNCC(N)CO)=CC[C@H]3N)[C@@H](N)C[C@H]2NC(=O)[C@@H](O)CCN)OC[C@]1(C)O (stereo partly drawn) [Example 30, 6′-(2-Amino-propanol)-1-(4-amino-2(S)-hydroxy-butyryl)-sisomicin]	< 1	1 to 16 (≈ 1.61 to 25.7 µM)	–	–	–
CN[C@@H]1[C@@H](O)[C@@H](O[C@@H]2[C@@H](O)[C@H](O[C@H]3OC(CNCC4(O)CCNCC4)=CC[C@H]3N)[C@@H](N)C[C@H]2NC(=O)[C@@H](O)CCN)OC[C@]1(C)O [Example 31]	1 to 16 (≈ 1.51 to 24.2 µM)	1 to 16 (≈ 1.51 to 24.2 µM)	–	–	–
CN[C@@H]1[C@@H](O)[C@@H](O[C@@H]2[C@@H](O)[C@H](O[C@H]3OC(CNCC(O)CCCN)=CC[C@H]3N)[C@@H](N)C[C@H]2NC(=O)[C@@H](O)CCN)OC[C@]1(C)O (stereo partly drawn) [Example 32, 6′-(2-Hydroxy-5-amino-pentyl)-1-(4-amino-2(S)-hydroxy-butyryl)-sisomicin]	< 1	1 to 16 (≈ 1.54 to 24.6 µM)	–	–	–
CN[C@@H]1[C@@H](O)[C@@H](O[C@@H]2[C@@H](O)[C@H](O[C@H]3OC(CNC[C@H]4C[C@H](N)C4)=CC[C@H]3N)[C@@H](N)C[C@H]2NC(=O)[C@@H](O)CCN)OC[C@]1(C)O [Example 33, 6′-(Methyl-trans-3-amino-cyclobutyl)-1-(4-amino-2(S)-hydroxy-butyryl)-sisomicin]	< 1	1 to 16 (≈ 1.58 to 25.3 µM)	–	–	–
CN[C@@H]1[C@@H](O)[C@@H](O[C@@H]2[C@@H](O)[C@H](O[C@H]3OC(CNCC(O)CCN)=CC[C@H]3N)[C@@H](N)C[C@H]2NC(=O)C2(O)CCNC2)OC[C@]1(C)O (stereo partly drawn) [Example 35]	< 1	1 to 16 (≈ 1.54 to 24.7 µM)	–	–	–
CN[C@@H]1[C@@H](O)[C@@H](O[C@@H]2[C@@H](O)[C@H](O[C@H]3OC(CNCCO)=CC[C@H]3N)[C@@H](N)C[C@H]2NC(=O)C2(O)CNC2)OC[C@]1(C)O [Example 37]	< 1	1 to 16 (≈ 1.69 to 27.1 µM)	–	–	–
CN[C@@H]1[C@@H](O)[C@@H](O[C@@H]2[C@@H](O)[C@H](O[C@H]3OC(CNCCN)=CC[C@H]3N)[C@@H](N)C[C@H]2NC(=O)[C@@H](O)CCN)OC[C@]1(C)O [Example 38, 6′-(2-Amino-ethyl)-1-(4-amino-2(S)-hydroxy-butyryl)-sisomicin]	< 1	1 to 16 (≈ 1.69 to 27 µM)	–	–	–
CN[C@@H]1[C@@H](O)[C@@H](O[C@@H]2[C@@H](O)[C@H](O[C@H]3OC(CNCCCN)=CC[C@H]3N)[C@@H](N)C[C@H]2NC(=O)C2(O)CCNC2)OC[C@]1(C)O (stereo partly drawn) [Example 40]	1 to 16 (≈ 1.62 to 25.9 µM)	1 to 16 (≈ 1.62 to 25.9 µM)	–	–	–
CN[C@@H]1[C@@H](O)[C@@H](O[C@@H]2[C@@H](O)[C@H](O[C@H]3OC(CNCC4CC4)=CC[C@H]3N)[C@@H](N)C[C@H]2NC(=O)C2(O)CCNC2)OC[C@]1(C)O (stereo partly drawn) [Example 41]	< 1	1 to 16 (≈ 1.63 to 26 µM)	–	–	–
CN[C@@H]1[C@@H](O)[C@@H](O[C@@H]2[C@@H](O)[C@H](O[C@H]3OC(CNCC(O)CN)=CC[C@H]3N)[C@@H](N)C[C@H]2NC(=O)C2(O)CCNC2)OC[C@]1(C)O (stereo partly drawn) [Example 42, 6′-(2-Hydroxy-3-amino-propyl)-1-(3-hydroxy-pyrrolidin-3-yl-acetyl)-sisomicin]	1 to 16 (≈ 1.58 to 25.2 µM)	1 to 16 (≈ 1.58 to 25.2 µM)	–	–	–
CN[C@@H]1[C@@H](O)[C@@H](O[C@@H]2[C@@H](O)[C@H](O[C@H]3OC(CNCCCCN)=CC[C@H]3N)[C@@H](N)C[C@H]2NC(=O)[C@@H](O)CCN)OC[C@]1(C)O [Example 43, 6′-(4-Amino-butyl)-1-(4-amino-2(S)-hydroxy-butyryl)-sisomicin]	< 1	< 1	–	–	–
CN[C@@H]1[C@@H](O)[C@@H](O[C@@H]2[C@@H](O)[C@H](O[C@H]3OC(CNCCCCCN)=CC[C@H]3N)[C@@H](N)C[C@H]2NC(=O)[C@@H](O)CCN)OC[C@]1(C)O [Example 44, 6′-(5-Amino-pentyl)-1-(4-amino-2(S)-hydroxy-butyryl)-sisomicin]	< 1	1 to 16 (≈ 1.58 to 25.2 µM)	–	–	–
CN[C@@H]1[C@@H](O)[C@@H](O[C@@H]2[C@@H](O)[C@H](O[C@H]3OC(CNCCC4CNCCN4C)=CC[C@H]3N)[C@@H](N)C[C@H]2NC(=O)[C@@H](O)CCN)OC[C@]1(C)O (stereo partly drawn) [Example 45]	–	–	< 1	1 to 16 (≈ 1.48 to 23.7 µM)	–
CN[C@@H]1[C@@H](O)[C@@H](O[C@@H]2[C@@H](O)[C@H](O[C@H]3OC(CNCC4(O)CC(N)C4)=CC[C@H]3N)[C@@H](N)C[C@H]2NC(=O)[C@@H](O)CCN)OC[C@]1(C)O (stereo partly drawn) [Example 46]	< 1	1 to 16 (≈ 1.54 to 24.7 µM)	–	–	–
CN[C@@H]1[C@@H](O)[C@@H](O[C@@H]2[C@@H](O)[C@H](O[C@H]3OC(CNCC4(O)CC(N)C4)=CC[C@H]3N)[C@@H](N)C[C@H]2NC(=O)C2(O)CNC2)OC[C@]1(C)O (stereo partly drawn) [Example 47]	1 to 16 (≈ 1.55 to 24.8 µM)	1 to 16 (≈ 1.55 to 24.8 µM)	–	–	–
CN[C@@H]1[C@@H](O)[C@@H](O[C@@H]2[C@@H](O)[C@H](O[C@H]3OC(CNCCCN)=CC[C@H]3N)[C@@H](N)C[C@H]2NC(=O)[C@@H](O)CCN)OC[C@]1(C)O [Example 48, 6′-(3-Amino-propyl)-1-(4-amino-2(S)-hydroxy-butyryl)-sisomicin]	–	–	< 1	1 to 16 (≈ 1.65 to 26.4 µM)	1
CN[C@@H]1[C@@H](O)[C@@H](O[C@@H]2[C@@H](O)[C@H](O[C@H]3OC(CNCC4CCCN4)=CC[C@H]3N)[C@@H](N)C[C@H]2NC(=O)[C@@H](O)CCN)OC[C@]1(C)O (stereo partly drawn) [Example 49, 6′-(Methyl-pyrrolidin-2-yl)-1-(4-amino-2(S)-hydroxy-butyryl)-sisomicin]	< 1	1 to 16 (≈ 1.58 to 25.3 µM)	–	–	–
CN[C@@H]1[C@@H](O)[C@@H](O[C@@H]2[C@@H](O)[C@H](O[C@H]3OC(CNC[C@H](O)C(=O)O)=CC[C@H]3N)[C@@H](N)C[C@H]2NC(=O)[C@@H](O)CCN)OC[C@]1(C)O [Example 50, 6′-(2(S)-Hydroxy-3-propanoic)-1-(4-amino-2(S)-hydroxy-butyryl)-sisomicin]	> 16	> 16	–	–	–
CN[C@@H]1[C@@H](O)[C@@H](O[C@@H]2[C@@H](O)[C@H](O[C@H]3OC(CNCC(C)(C)CN)=CC[C@H]3N)[C@@H](N)C[C@H]2NC(=O)[C@@H](O)CN)OC[C@]1(C)O [Example 51, 6′-(2,2-Dimethyl-3-amino-propyl)-1-(3-amino-2(S)-hydroxy-propionyl)-sisomicin]	< 1	> 16	–	–	–
CN[C@@H]1[C@@H](O)[C@@H](O[C@@H]2[C@@H](O)[C@H](O[C@H]3OC(CNCCC(N)C4CC4)=CC[C@H]3N)[C@@H](N)C[C@H]2NC(=O)[C@@H](O)CN)OC[C@]1(C)O (stereo partly drawn) [Example 52, 6′-(3-Amino-3-cyclopropyl-propyl)-1-(3-amino-2(S)-hydroxy-propionyl)-sisomicin]	< 1	1 to 16 (≈ 1.58 to 25.3 µM)	–	–	–
CN[C@@H]1[C@@H](O)[C@@H](O[C@@H]2[C@@H](O)[C@H](O[C@H]3OC(CNC[C@H]4C[C@H](O)CN4)=CC[C@H]3N)[C@@H](N)C[C@H]2NC(=O)[C@@H](O)CN)OC[C@]1(C)O [Example 53, 6′-(Methyl-4(S)-hydroxy-pyrrolidin-2(R)-yl)-1-(3-amino-2(S)-hydroxy-propionyl)-sisomicin]	1 to 16 (≈ 1.58 to 25.2 µM)	> 16	–	–	–
CN[C@@H]1[C@@H](O)[C@@H](O[C@@H]2[C@@H](O)[C@H](O[C@H]3OC(CNCCCO)=CC[C@H]3N)[C@@H](N)C[C@H]2NC(=O)[C@@H](O)CN)OC[C@]1(C)O [Example 54, 6′-(3-Propanol)-1-(3-amino-2(S)-hydroxy-propionyl)-sisomicin]	< 1	1 to 16 (≈ 1.69 to 27 µM)	–	–	–
CN[C@@H]1[C@@H](O)[C@@H](O[C@@H]2[C@@H](O)[C@H](O[C@H]3OC(CNCC(C)(C)N)=CC[C@H]3N)[C@@H](N)C[C@H]2NC(=O)[C@@H](O)CN)OC[C@]1(C)O [Example 55, 6′-(2-Methyl-2-amino-propyl)-1-(3-amino-2(S)-hydroxy-propionyl)-sisomicin]	1 to 16 (≈ 1.65 to 26.4 µM)	> 16	–	–	–
CN[C@@H]1[C@@H](O)[C@@H](O[C@@H]2[C@@H](O)[C@H](O[C@H]3OC(CNCC4(N)CCC4)=CC[C@H]3N)[C@@H](N)C[C@H]2NC(=O)[C@@H](O)CN)OC[C@]1(C)O [Example 56, 6′-(Methyl-1-amino-cyclobutyl)-1-(3-amino-2(S)-hydroxy-propionyl)-sisomicin]	< 1	> 16	–	–	–
